Test system: EMT6 mouse breast carcinoma syngeneic tumor
Assay: Study 1: EMT6 mouse syngeneic tumor model, subcutaneous, anti-tumor efficacy
Type: in vivo, female BALB/c mice
Settings: for GRI (%) Day 19: vs vehicle; for Number of Complete Regressions: n=10/group, 72-day study; for Combination Assessment / Synergy Score %: data through Day 19
Excerpt: Studies 1 and 2: EMT6 is a mouse breast carcinoma cell line. EMT6 mouse syngeneic tumor model was generated by subcutaneous (sc) inoculation with 0.2×10^6 EMT6 cells (cell suspension) in nine to ten week old female BALB/c mice (Vital River Laboratory Animal Technology Co., Ltd., Beijing, China) in the flank. When the mean tumor volume reached 60 mm^3 in Study 1 and 75 mm^3 in Study 2 the animals were randomized into one vehicle control and seven treatment groups (n=10/group). Mice were then dosed with vehicle (phosphate buffered saline (PBS)) or Compound No. 14 or 10 Gy Radiation or Compound No. 14 plus 10 Gy Radiation over an eight-day period. Tumor growth and body weight were measured three times per week during the treatment and post-treatment periods. Mice were humanely euthanized once they reached their humane endpoint or until study termination on day 72 (Study 1) or on day 60 (Study 2).
Studies 1 and 2: A 0.1 mg/mL stock solution of Compound No. 14 was formulated in PBS and administered intravenously (IV) based on exact animal body weight on each day of treatment, using a dosing volume of 10 mL/kg body weight. Final doses received were 1.0 mg/kg. […] Compound No. 14 was administered on a Q3D schedule for 3 doses (Day 2, 5 and 8) in single agent treatment group and in combination treatment groups. Dose formulation of Compound No. 14 was prepared once and utilized for dosing on Days 2, 5 and 8.
Radiation treatment for Studies 1 and 2 was performed using RadSource RS 2000 X-ray irradiator (Rad Source Technologies). Animals received 1.046 Gy/minute of radiation and approximately 9.5 min was needed to reach a 10 Gy dose delivery. Animals were anesthetized prior to placement in irradiation chamber using isoflurane and checked for reflexes. Radiation beam was focused on tumor with manual positioning. Radiation was administered via manual positioning in a single 10 Gy dose on either day 0, 2 or 4 in Study 1, and on either day 0, 1, 2, 3 or 4 in Study 2.
Tumors were measured three times weekly using vernier calipers. Tumor volumes were calculated using standard equation: V=W^2×L/2, where V=volume, W=width, and L=length for the tumor. When mean tumor volumes reached approximately 60 mm^3 for Study 1, 75 mm^3 for Study 2, and 110 mm^3 for Study 3, mice were randomized into eight groups (n=10/group) in Studies 1 and 2, and nine groups (n=8/group) in Study 3. These groups were then dosed with vehicle (PBS), Compound No. 14, Radiation, anti-mPD-1 or isotype control, or combinations of these agents as described in Tables 1a, 2a, and 3a. Tumor size and body weight were measured three times a week for the duration of each study. Mice were euthanized for Studies 1 and 2 when their tumor volumes reached greater than 10% of their body weight or when an individual tumor exceeded the humane end-point for size (>2 cm) or when an animal lost 20% of their body weight relative to the start of the study or lost 15% of their body weight in any 24 hr time frame. Mice were euthanized in Study 3 when tumor volume exceeded 2,000 mm^3 or an animal lost more than 20% of their body weight relative to the start of study.
Growth Rate Inhibition: The differences in the tumor growth trends over time between pairs of treatment groups were assessed by fitting each animal's data to a simple exponential growth model and comparing the mean growth rates of the two groups, as described in more detail below. The difference in the growth rates was summarized by the GRI, which is the reduction in growth rate experienced by the treatment group relative to that of the reference group, expressed as a fraction of the vehicle growth rate.
μT and μC are the mean tumor growth rates for the treatment and reference groups, respectively. μV is the mean tumor growth rate for the vehicle group, which in most cases is the same as the reference group.
A GRI greater than 100% is interpreted as tumor regression when the vehicle group is the same as the reference group. […]

[1] = Compound No. 14 1.0 mg/kg IV Q3D×3 + 10Gy Radiation (Day 0)
[2] = Compound No. 14 1.0 mg/kg IV Q3D×3 + 10Gy Radiation (Day 2)
[3] = Compound No. 14 1.0 mg/kg IV Q3D×3 + 10Gy Radiation (Day 4)
[4] = Compound No. 14 + Radiation (10 Gy) Day 0
[5] = Compound No. 14 + Radiation (10 Gy) Day 2
[6] = Compound No. 14 + Radiation (10 Gy) Day 4

## Nc1ncnc2c1ncn2[C@@H]1O[C@@H]2COP(=O)(S)O[C@@H]3[C@H](O)[C@@H](COP(=O)(S)O[C@H]2[C@H]1F)O[C@H]3n1cc(F)c2c(=O)[nH]cnc21 (stereo partly drawn) [Compound No. 14]
Compound No. 14 1.0 mg/kg IV Q3D×3 (Days 2, 5, 8), single agent
  GRI (%) Day 19: 30%
[1]
  Number of Complete Regressions: 1
  GRI (%) Day 19: 82%
[2]
  Number of Complete Regressions: 1
  GRI (%) Day 19: 60%
[3]
  Number of Complete Regressions: 2
  GRI (%) Day 19: 67%
Compound No. 14 1.0 mg/kg IV Q3D×3, single agent
  Number of Complete Regressions: 0
[4]
  Combination Assessment: Additive
  Synergy Score %: −20%
[5]
  Combination Assessment: Additive
  Synergy Score %: 7%
[6]
  Combination Assessment: additive
  Synergy Score %: −10%
Compound No. 14 + Radiation (10 Gy) Day 4, listed as Compound No.14
  Combination Assessment: Additive
